In publication PMC12040169 (PLOS Biology, 2025):

Test: in vitro
Conditions: human, hela cells, % viability

Compound | viability at 28.5 h, 10 µM
Cc1ccc(CNC(=O)Cn2nnc(-c3ccc(CN4CC(C)OC(C)C4)cc3)n2)cc1 (stereo not drawn) [CBK144554C] | 64.2%
CSc1ccccc1CNC(=O)Cn1nnc(-c2ccc(CN3CCC(C)CC3)cc2)n1 [CBK144573C] | 93.2%
CC1CCN(Cc2ccc(-c3nnn(CC(=O)NCc4ccc(NS(C)(=O)=O)cc4)n3)cc2)CC1 [CBK144588C] | 90.3%
CCNC(=O)N1CC2(CCN(C/C=C/c3ccccc3)CC2)c2ccccc21 [CBK144596T] | 97.6%
CCNC(=O)N1CC2(CCN(CCOc3ccc(OC)cc3)CC2)c2ccccc21 [CBK144600T] | 98.4%
CC(C)C(=O)N1CC2(CCN(Cc3cc(=O)[nH]c(=O)[nH]3)CC2)c2ccccc21 [CBK144602T] | 107%
Cc1cc(NCCc2ccc(=O)[nH]c2)nc(-c2cc(F)c(F)cc2F)n1 [CBK144636C] | 99.3%
O=C(OCc1ccccc1)N1CCC(C2OCc3cc(-c4cccc5ncccc45)ccc3O2)CC1 (stereo not drawn) [CBK144644] | 94.8%
O=C(Nc1ccc2[nH]ccc2c1)c1c(F)cccc1F [CBK144711] | 95.9%
CS(=O)(=O)N1CCC(Oc2nccnc2OCc2ccc(Cl)c(Cl)c2)CC1 [CBK144910] | 90.5%
CSc1nnc(NS(=O)(=O)c2ccccc2C)s1 [CBK144918] | 97.4%
COCCSc1nnc(NS(=O)(=O)c2ccc(F)cc2)s1 [CBK144919] | 87.1%
CC(C)(C)OC(=O)N1CCN(Cc2ccn(Cc3ccc(S(C)(=O)=O)cc3)c2)CC1 [CBK144936] | 119%
CCCC1CCN(Cc2ccn(Cc3ccc(S(C)(=O)=O)cc3)c2)CC1 [CBK144937] | 94.4%
O=C(Nc1cccnc1)N1CCN(c2ccccc2)CC1 [CBK145043] | 89.5%
CN(C)CCN(Cc1ccccc1)C(=O)Nc1cccnc1 [CBK145047] | 95%
CCN(Cc1ccncc1)C(=O)Nc1cccnc1 [CBK145053] | 111%
CCN(Cc1ccncc1)C(=O)NCc1cccnc1 [CBK145054] | 94.6%
CCN(Cc1ccncc1)C(=O)NCc1ccc2c(c1)OCO2 [CBK145056] | 102%
COc1ccc(CCOc2cnc(-c3ccccc3)c(N)n2)cc1 [CBK145065] | 98.8%
COc1cccc(COc2cnc(-c3ccccc3)c(N)n2)c1OC [CBK145066] | 101%
COc1ccccc1-c1ncc(OCc2ccccn2)nc1N [CBK145070] | 109%

Compound | viability at 28.5 h, 10 µM
COc1ccccc1-c1ncc(OC2CCN(C)C2)nc1N (stereo not drawn) [CBK145081] | 92.4%
COc1ccc(-c2ncc(Oc3cccc(NC(C)=O)c3)nc2N)c(OC)c1 [CBK145087] | 113%
COCOc1ccc(-c2ncc(OCc3ccc4c(c3)OCO4)nc2N)cc1 [CBK145101] | 100%
COCc1cccc(-c2ncc(OCc3ccccn3)nc2N)c1 [CBK145108] | 93.9%
Nc1nc(OCCc2cccs2)cnc1-c1ccc(OC(F)(F)F)cc1 [CBK145116] | 92.7%
Nc1nc(OCc2ccncc2)cnc1-c1ccc(OC(F)(F)F)cc1 [CBK145121] | 99.8%
Cc1ccc(-c2ncc(OCCN3CCCC3=O)nc2N)c(C)c1 [CBK145127] | 99.3%
Cc1ccc(-c2ncc(OC3CCN(C)CC3)nc2N)c(C)c1 [CBK145139] | 97.5%
Nc1nc(OCc2cccs2)cnc1-c1ccsc1 [CBK145161] | 95.8%
Nc1nc(OCCOc2ccccc2)cnc1-c1ccsc1 [CBK145163] | 109%
Cn1cc(-c2ncc(OCCc3cccs3)nc2N)cn1 [CBK145167] | 87.8%
Cn1cc(-c2ncc(OCCOc3ccccc3)nc2N)cn1 [CBK145171] | 108%
Nc1nc(OCc2ccccc2)cnc1-c1cccc(C(F)(F)F)c1 [CBK145179] | 99.4%
COc1cccc(Oc2cnc(-c3ccc(C(=O)N(C)C)cc3)c(N)n2)c1 [CBK145185] | 95.5%
CN(C)C(=O)c1ccc(-c2ncc(OCc3cccs3)nc2N)cc1 [CBK145187] | 102%
Nc1nc(OCCN2CCOCC2)cnc1-c1cc(Cl)cc(Cl)c1 [CBK145198] | 99.8%
CCC(CC)C(=O)Nc1nc(OCCN2CCCC2=O)cnc1-c1ccc(Cl)cc1Cl [CBK145210] | 92.6%
COCOc1ccc(-c2ncc(OC)nc2NC(=O)COC)cc1 [CBK145216] | 92.7%
COc1cnc(-c2cnn(C)c2)c(NC(=O)c2cc(C)oc2C)n1 [CBK145218] | 93.2%
COc1cnc(/C=C\c2ccccc2)c(NC(=O)c2cc(C)oc2C)n1 [CBK145222] | 95.1%
COCOc1ccc(-c2ncc(OCCN3CCCC3=O)nc2NC(C)=O)cc1 [CBK145253] | 104%
COc1cnc(-c2ccccc2OC)c(NC(=O)Cc2ccccc2)n1 [CBK145260] | 95.8%

Compound | viability at 28.5 h, 10 µM
COc1ccccc1-c1ncc(OCC(F)(F)F)nc1NC(=O)C1CC1 [CBK145275] | 86.4%
COc1cnc(-c2ccsc2)c(NC(=O)c2cc(C)oc2C)n1 [CBK145294] | 93.2%
CC(C)CC(=O)Nc1nc(OCC(F)(F)F)cnc1-c1ccc(Cl)cc1Cl [CBK145356] | 94.2%
O=C(Nc1nc(OCC(F)(F)F)cnc1-c1ccc(Cl)cc1Cl)c1cc2ccccc2s1 [CBK145358] | 87.4%
COc1ccc(CC(=O)Nc2nc(OCC(F)(F)F)cnc2-c2ccc(Cl)cc2Cl)cc1 [CBK145359] | 91%
CC(=O)Nc1nc(OCCN2CCCC2=O)cnc1/C=C\c1ccccc1 [CBK145371] | 84.9%
COc1cnc(-c2cccc(C(=O)N(C)C)c2)c(NC(=O)c2ccccc2)n1 [CBK145385] | 102%
COc1cnc(-c2ccc(Cl)cc2Cl)c(NC(=O)Cc2ccccc2)n1 [CBK145398] | 92.8%
CC(=O)Nc1nc(OCCOc2ccccc2)cnc1-c1cnn(C)c1 [CBK145425] | 92.6%
COc1ccc(CC(=O)Nc2nc(OC)cnc2-c2ccoc2)cc1 [CBK145435] | 92.8%
CCCCN(C)c1c(CC)nc2ccc(C(=O)NCCc3ccccn3)cn12 [CBK145441] | 98.4%
CCCCN(C)c1c(CC)nc2ccc(C(=O)N3CCNC(=O)C3)cn12 [CBK145460] | 87.9%
CCc1nc2ccc(C(=O)NCCN3CCNC3=O)cn2c1N(CCN(C)C)CC1CC1 [CBK145469] | 89.2%
CCCCN(C=O)c1c(CC)nc2ccc(C(=O)Nc3ccc(Cl)c(Cl)c3)cn12 [CBK145470] | 84.1%
CCc1nc2ccc(C(=O)NCc3ccc4c(c3)OCO4)cn2c1N(CCN(C)C)CC1CC1 [CBK145472] | 97.1%
CCc1nc2ccc(C(=O)N(C)CCN(C)C)cn2c1N(C)Cc1nccs1 [CBK145474] | 96.8%
CCOC(=O)N(C)c1c(CC)nc2ccc(C(=O)Nc3cc(-c4ccccc4)ccc3OC)cn12 [CBK145478] | 89.6%
Cc1nc2ccc(C(=O)N3CCCCC3)cn2c1N(C)C=O [CBK145480] | 100%
Cc1nc2ccc(C(=O)N(C)Cc3ccco3)cn2c1N(C)C=O [CBK145482] | 99%
CCc1nc2ccc(C(=O)Nc3ccc(NC(C)=O)cc3)cn2c1N(C)CC [CBK145483] | 94.5%
CCc1nc2ccc(C(=O)NC3CCN(Cc4ccccc4)CC3)cn2c1N(C)CC [CBK145488] | 88.3%
CCc1nc2ccc(C(=O)NCc3cccs3)cn2c1N(C)CC [CBK145492] | 108%

Compound | viability at 28.5 h, 10 µM
CCc1nc2ccc(C(=O)NCCOc3ccc(OC)cc3)cn2c1N(C)CC [CBK145504] | 91.9%
CCc1nc2ccc(C(=O)N3CCN(S(=O)(=O)CC)CC3)cn2c1N(C)CC [CBK145520] | 85.1%
CCc1nc2ccc(C(=O)Nc3ccc4c(c3)OCC(=O)N4)cn2c1N(C)CC [CBK145521] | 96.8%
CCc1nc2ccc(C(=O)N3CCN(c4ccccc4)CC3)cn2c1N(C)Cc1ccc(OC)cc1 [CBK145584] | 85.4%
CCc1nc2ccc(C(=O)Nc3ccc(Cl)c(Cl)c3)cn2c1N(C)Cc1ccc(OC)cc1 [CBK145585] | 93.6%
CCc1nc2ccc(C(=O)NCCNC(C)=O)cn2c1N(C)Cc1ccc(NC(C)=O)cc1 [CBK145612] | 87.4%
CCc1nc2ccc(C(=O)N3CCN(C(=O)c4ccco4)CC3)cn2c1N(C)Cc1ccncc1 [CBK145635] | 94.5%
CCc1nc2ccc(C(=O)NCCc3c[nH]c4ccccc34)cn2c1N(C)Cc1ccncc1 [CBK145636] | 99.7%
CCCCN(C(C)=O)c1c(CC)nc2ccc(C(=O)N(C)CCN(C)C)cn12 [CBK145739] | 91.7%
CCCCN(C(C)=O)c1c(CC)nc2ccc(C(=O)NCc3ccccc3OC)cn12 [CBK145761] | 96%
CCc1nc2ccc(C(=O)N(C)CCN(C)C)cn2c1N(C)C(=O)C1CCCCC1 [CBK145771] | 93.8%
CCc1nc2ccc(C(=O)N3CCNC(=O)C3)cn2c1N(C)C(=O)COc1ccccc1 [CBK145871] | 107%
CCc1nc2ccc(C(=O)NC3=NN(c4ccccc4)C(=O)C3)cn2c1N(C)C(=O)COc1ccccc1 [CBK145873] | 91.3%
CCc1nc2ccc(C(=O)Nc3ccc(OC)c(OC)c3)cn2c1N(C)C(=O)Nc1ccccc1OC [CBK145875] | 117%
CCc1nc2ccc(C(=O)N3CCN(c4ccccc4)CC3)cn2c1N(C)C(=O)Nc1ccccc1OC [CBK145886] | 96.2%
CCCCNC(=O)c1ccc2nc(C)c(N(C)CC3CCCCC3)n2c1 [CBK145913] | 99.6%
CCc1nc2ccc(C(=O)N(C)Cc3ccccc3)cn2c1N(C=O)CC [CBK145936] | 102%
CCN(CC)c1c(C)nc2ccc(C(=O)N(C)CCN(C)C)cn12 [CBK145950] | 90.6%
CCN(CC)c1c(C)nc2ccc(C(=O)NC3CCN(C)CC3)cn12 [CBK145965] | 98.7%
CCc1nc2ccc(C(=O)N(C)CCN(C)C)cn2c1N(CC)CCOC [CBK146018] | 94.2%
CCc1nc2ccc(C(=O)N3CCCCC3)cn2c1N(C)CCC(C)C [CBK146065] | 96.3%
